Laboratory results published in US10858326B2, “Oxazoline pseudodimers, pharmaceutical compositions and the use thereof” (PURDUE PHARMA L.P., priority 2016, dated 2020).

Molecular target: hTAAR1 (Homo sapiens (Human), UniProt Q96RJ0)
Assay: in vitro cAMP assay (agonist activity assay), HitHunter cAMP XS+, cAMP Hunter cell lines
Format: cell-based
Conditions: cAMP Hunter cells, n in brackets; for EC50: 30 min at 37° C., read-out: hTAAR1 EC50 (mean ± SEM(n)); for Emax: maximal cAMP level, read-out: hTAAR1 Emax (mean ± SEM(n))
Method: EC50 (the effective concentration of an agonist that produces half of the maximal effect) and Emax (the maximal cAMP level generated by the biding of a ligand) can be used as a measure of potency. […] An in vitro cAMP assay (agonist activity assay) is described below.
cAMP Hunter cell lines were expanded from freezer stocks according to standard procedures. Cells were seeded in a total volume of 20 μL into white walled, 384-well microplates and incubated at 37° C. overnight prior to testing. cAMP modulation was determined using the HitHunter™ cAMP XS+ assay (DiscoverX, Fremont, Calif.).
On the day of test, media was aspirated from cells and replaced with 15 μL HBSS/10 mM HEPES. A plate centrifuge was used for the media exchange, and the plate centrifuge was immediately stopped once its speed hit 270 RPM.
5 μL of 4× compound (prepared in HBSS/10 mM HEPES/4% DMSO) was added to cells and incubated at 37° C. for 30 minutes. Final assay vehicle concentration was 1%.
5 μL of cAMP XS+ Antibody reagent was then added, followed by 20 μL of ED/CL lysis mix. The mixture was incubated at room temperature for 60 minutes. 20 μL of EA reagent was added, and the mixture was incubated at room temperature for 120 minutes.
Microplates were read following signal generation with a PerkinElmer Envision™ instrument (Waltham, Mass.) for chemiluminescent signal detection. Compound activity was analyzed using CBIS Data Analysis Suite (ChemInnovation, CA).

Sequence of hTAAR1 (Q96RJ0 whole entry): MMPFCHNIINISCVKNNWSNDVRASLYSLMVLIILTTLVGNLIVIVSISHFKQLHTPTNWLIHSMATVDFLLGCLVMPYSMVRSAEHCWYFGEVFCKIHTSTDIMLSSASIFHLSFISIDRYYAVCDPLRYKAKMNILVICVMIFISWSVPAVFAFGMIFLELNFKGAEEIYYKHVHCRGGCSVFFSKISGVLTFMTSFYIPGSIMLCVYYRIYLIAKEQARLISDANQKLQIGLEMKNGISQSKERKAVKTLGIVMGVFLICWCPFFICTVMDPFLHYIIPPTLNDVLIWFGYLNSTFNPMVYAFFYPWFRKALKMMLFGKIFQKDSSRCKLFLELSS

| EC50 [µM] | SMILES | Emax [%] |
| --- | --- | --- |
| > 10 | Clc1ccc([C@H]2COC(NC3=N[C@@H](c4ccc(Cl)c(Cl)c4)CO3)=N2)cc1Cl [Compound (8), (4S)-4-(3,4-dichlorophenyl)-N-[(4S)-4-(3,4-dichlorophenyl)-4,5-dihydro-1,3-oxazol-2-yl]-4,5-dihydro-1,3-oxazol-2-amine] |  |
| > 10 | CCN(C[C@H]1COC(NC2=N[C@@H](c3ccc(Cl)c(Cl)c3)CO2)=N1)c1ccccc1 [Compound (24), (4S)-4-(3,4-dichlorophenyl)-N-[(4S)-4-{[ethyl(phenyl)amino]methyl}-4,5-dihydro-1,3-oxazol-2-yl]-4,5-dihydro-1,3-oxazol-2-amine] | 34.3 ± 8.7 |
| 4.07 ± 1.07 | CCN(C[C@H]1COC(NC2=N[C@@H](CN(CC)c3ccccc3)CO2)=N1)c1ccccc1 [Compound (25), (4S)-4-{[ethyl(phenyl)amino]methyl}-N-[(4S)-4-{[ethyl(phenyl)amino]methyl}-4,5-dihydro-1,3-oxazol-2-yl]-4,5-dihydro-1,3-oxazol-2-amine] | 60.7 ± 9.4 |

Continued, molecule first:

| SMILES | EC50 [µM] | Emax [%] |
| --- | --- | --- |
| c1ccc([C@H]2COC(NC3=N[C@@H](c4ccccc4)CO3)=N2)cc1 [Compound (26), (4S)-4-phenyl-N-[(4S)-4-phenyl-4,5-dihydro-1,3-oxazol-2-yl]-4,5-dihydro-1,3-oxazol-2-amine] | > 10 | 3.6 ± 0.9 |
| Cc1c(F)cccc1[C@H]1COC(NC2=N[C@@H](c3cccc(F)c3C)CO2)=N1 [Compound (27), (4S)-4-(3-fluoro-2-methylphenyl)-N-[(4S)-4-(3-fluoro-2-methylphenyl)-4,5-dihydro-1,3-oxazol-2-yl]-4,5-dihydro-1,3-oxazol-2-amine] | 0.398 ± 0.0656 | 67.5 ± 3.4 |
